# Assay results as given in the supplement of paper PMC10307832.
# Legend:
# Assay in all cases: relative viability (nuclei count vs DMSO), 5 days (fraction); higher = more cells survive
# BAM7 + Olaparib = compound: CCOC1=CC=CC=C1N=NC2=C(NN(C2=O)C3=NC(=CS3)C4=CC=CC=C4)C [BAM7] + O=C(c1cc(Cc2n[nH]c(=O)c3ccccc23)ccc1F)N1CCN(C(=O)C2CC2)CC1 [Olaparib] (partner 8 µM)
# In short: (§1)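 Lung cancer cell lines, seeded in 1536-well plates, were treated the following day by pin tool with a single drug or with five library-drug doses (not always all listed) in √10 steps on top of a fixed anchor-drug dose. Cells were fixed and nuclei stained in one step after 5 days, and nuclei were counted. Relative viability is the nuclei count for treated wells divided by that for vehicle wells, reported as medians of duplicate plates.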
# [1] = compound: CCn1c(-c2nonc2N)nc2c(C#CC(C)(C)O)ncc(OC[C@H]3CCCNC3)c21 + C[C@@H](Oc1cc(-c2cnn(C3CCNCC3)c2)cnc1N)c1c(Cl)ccc(F)c1Cl [Crizotinib] (partner 1 µM)
# In short: as §1
# [2] = compound: CCn1c(-c2nonc2N)nc2c(C#CC(C)(C)O)ncc(OC[C@H]3CCCNC3)c21 + COc1cccc2cc(-c3nc([C@H]4CC[C@H](C(=O)O)CC4)n4ncnc(N)c34)[nH]c12 [OSI-027] (partner 0.5 µM)
# In short: as §1
# [3] = compound: CCn1c(-c2nonc2N)nc2c(C#CC(C)(C)O)ncc(OC[C@H]3CCCNC3)c21 + CC(=O)Nc1cccc(-n2c(=O)n(C3CC3)c(=O)c3c(Nc4ccc(I)cc4F)n(C)c(=O)c(C)c32)c1 [Trametinib] (partner 0.02 µM)
# In short: as §1
Cell Line,relative viability (BAM7 + Olaparib; first compound 0.5 µM),relative viability (BAM7 + Olaparib; first compound 5 µM),relative viability (BAM7 + Olaparib; first compound 15.81 µM),relative viability (BAM7 + Olaparib; first compound 50 µM),relative viability ([1]; first compound 0.01 µM),relative viability ([1]; first compound 0.03162 µM),relative viability ([1]; first compound 0.1 µM),relative viability ([1]; first compound 0.3162 µM),relative viability ([1]; first compound 1 µM),relative viability ([2]; first compound 0.01 µM),relative viability ([2]; first compound 0.03162 µM),relative viability ([2]; first compound 0.1 µM),relative viability ([2]; first compound 0.3162 µM),relative viability ([2]; first compound 1 µM),relative viability ([3]; first compound 0.01 µM),relative viability ([3]; first compound 0.03162 µM),relative viability ([3]; first compound 0.1 µM),relative viability ([3]; first compound 0.3162 µM),relative viability ([3]; first compound 1 µM)
COR-L23,0.379,0.343,0.332,0.346,0.612,0.724,0.56,0.662,0.604,0.839,0.698,0.687,0.478,0.384,0.625,0.565,0.486,0.382,0.373
HCC-78,1.02,0.759,0.631,0.815,0.344,0.353,0.324,0.297,0.322,0.405,0.386,0.325,0.331,0.341,0.639,0.709,0.703,0.69,0.652
NCI-H727,0.707,0.58,0.522,0.573,0.841,0.94,0.785,0.667,0.763,0.617,0.58,0.535,0.551,0.528,0.391,0.359,0.336,0.347,0.371
NCI-H2087,0.683,0.685,0.559,0.456,0.729,0.748,0.942,0.847,0.732,0.479,0.522,0.652,0.477,0.467,0.23,,0.175,0.223,0.174
BEN,1.2,1.09,0.809,1.04,0.962,1.11,0.758,0.714,0.885,0.311,0.302,0.224,0.275,0.299,0.973,1.25,0.986,1.03,1.12
LCLC-103H,0.77,0.795,0.72,0.686,0.964,1.07,1.05,1.11,1.02,0.463,0.477,0.481,0.425,0.356,0.615,0.686,0.66,0.642,0.675
EKVX,0.863,0.929,0.839,0.788,0.845,0.929,1.03,0.667,0.795,0.685,0.671,0.678,0.686,0.752,0.394,0.385,0.347,0.377,0.34
LXF-289,1.17,1.05,1.02,1.09,0.856,0.815,0.797,0.758,0.828,0.778,0.779,0.808,0.759,0.804,0.686,0.66,0.703,0.609,0.668
NCI-H650,0.424,0.363,0.381,0.368,0.561,0.697,0.683,0.68,0.666,0.412,0.39,0.495,0.463,0.441,0.934,0.977,0.938,0.897,1.07
NCI-H1650,0.734,0.729,0.737,0.737,0.964,1.06,0.924,0.971,1.07,0.641,0.625,0.508,0.421,0.359,0.548,0.582,0.559,0.51,0.551
NCI-H2085,0.83,0.804,0.785,0.786,0.882,0.882,0.802,0.817,0.749,0.84,0.895,0.806,0.72,0.656,0.452,0.539,0.439,0.427,0.59
LC-2-ad,0.676,0.633,0.634,0.646,0.452,0.483,0.448,0.493,0.479,0.71,0.804,0.871,0.681,0.857,0.9,0.93,0.91,0.89,0.933
COR-L 105,0.806,0.746,0.665,0.707,0.692,1.05,0.731,0.731,0.875,0.664,0.802,0.59,0.52,0.499,0.451,0.434,0.437,0.46,0.499
NCI-H1355,0.753,0.725,0.679,0.718,1.09,0.943,1.03,1.02,0.799,0.451,0.379,0.378,0.393,0.424,0.464,0.415,0.463,0.386,0.382
H3255,0.597,0.666,0.417,0.405,0.805,0.983,0.804,0.598,0.782,0.683,0.658,0.607,0.539,0.528,0.608,0.614,0.576,0.427,0.532
NCI-H1993,0.955,1.08,0.888,0.98,0.856,0.877,0.92,0.775,0.887,0.579,0.537,0.525,0.546,0.549,0.688,0.493,0.555,0.464,0.507
NCI-H1734,0.57,0.664,0.599,0.609,0.629,0.721,0.682,0.685,0.641,0.574,0.632,0.538,0.478,0.382,0.705,0.664,0.678,0.584,0.679

Cell Line,relative viability (BAM7 + Olaparib; first compound 0.5 µM),relative viability (BAM7 + Olaparib; first compound 5 µM),relative viability (BAM7 + Olaparib; first compound 15.81 µM),relative viability (BAM7 + Olaparib; first compound 50 µM),relative viability ([1]; first compound 0.01 µM),relative viability ([1]; first compound 0.03162 µM),relative viability ([1]; first compound 0.1 µM),relative viability ([1]; first compound 0.3162 µM),relative viability ([1]; first compound 1 µM),relative viability ([2]; first compound 0.01 µM),relative viability ([2]; first compound 0.03162 µM),relative viability ([2]; first compound 0.1 µM),relative viability ([2]; first compound 0.3162 µM),relative viability ([2]; first compound 1 µM),relative viability ([3]; first compound 0.01 µM),relative viability ([3]; first compound 0.03162 µM),relative viability ([3]; first compound 0.1 µM),relative viability ([3]; first compound 0.3162 µM),relative viability ([3]; first compound 1 µM)
HOP-62,0.517,0.33,0.449,0.518,0.769,0.978,0.929,0.874,0.888,0.834,0.748,0.695,0.769,0.78,0.366,0.367,0.41,0.387,0.364
LOU-NH91,0.949,0.955,0.894,0.893,0.758,0.747,0.742,0.543,0.754,0.718,0.694,0.706,0.625,0.594,0.795,0.788,0.802,0.695,0.659
ChaGo-K-1,0.377,0.377,0.292,0.396,1.05,1.14,1.13,1.05,1.19,0.556,0.561,0.504,0.518,0.6,0.843,0.997,0.879,0.814,0.78
NCI-H2228,0.802,0.932,0.547,0.585,0.552,0.56,0.476,0.378,0.33,0.628,0.559,0.446,0.421,0.279,0.553,0.449,0.468,0.325,0.197
PC-14,0.305,0.216,0.161,0.234,0.925,0.863,0.944,0.94,0.839,0.706,0.968,0.797,0.499,0.613,0.716,0.772,0.613,0.446,0.444
NCI-H1437,0.557,0.546,0.526,0.492,0.911,0.821,0.899,0.936,0.927,0.815,0.951,0.885,0.758,0.897,0.483,0.508,0.612,0.515,0.535
NCI-H460,0.537,0.438,0.327,0.344,0.895,1.07,0.814,0.786,0.884,0.579,0.784,0.588,0.535,0.548,0.171,0.121,0.145,0.0808,0.105
NCI-H1666,0.818,0.727,0.752,0.781,1.04,1.1,0.966,0.943,0.968,0.776,0.777,0.835,0.693,0.722,0.819,0.791,0.861,0.819,0.878
NCI-H1651,0.192,0.202,0.198,0.175,0.857,0.829,0.877,0.853,0.893,0.719,0.676,0.723,0.563,0.9,0.83,0.82,0.811,0.783,0.841
NCI-H1755,0.858,0.939,0.858,0.899,0.877,0.866,0.84,0.892,0.849,0.704,0.697,0.704,0.69,0.638,0.855,0.808,0.801,0.769,0.801
NCI-H661,0.796,0.855,0.716,0.725,1.03,0.984,1.08,0.992,0.989,0.659,0.781,0.644,0.553,0.501,0.52,0.615,0.521,0.491,0.569
HARA,0.96,0.838,0.827,0.809,0.976,1.01,1.05,1.03,1.02,0.5,0.575,0.368,0.472,0.459,0.542,0.852,0.947,0.652,0.611
NCI-H596,0.665,0.625,0.636,0.697,0.834,1.08,0.996,0.915,0.948,0.618,0.789,0.663,0.668,0.645,0.797,,0.821,0.785,0.878
NCI-H23,0.374,0.271,0.258,0.291,0.477,0.572,0.444,0.48,0.417,0.679,0.612,0.606,0.638,0.597,0.373,0.378,0.433,0.369,0.357
LCLC-97TM1,0.362,0.472,,0.432,,0.435,0.331,0.333,0.367,0.49,0.502,0.484,0.515,0.439,0.172,0.232,0.216,0.191,0.198
EPLC-272H,0.465,0.935,0.594,0.651,0.962,1.09,0.892,0.802,0.904,0.303,0.261,0.262,0.314,0.264,0.324,0.284,0.252,0.217,0.315
NCI-H1915,0.269,0.262,0.223,0.259,0.909,0.909,0.809,0.872,0.856,0.625,0.648,0.573,0.629,0.652,0.293,0.3,0.299,0.281,0.308
